# Results reported in patent publication US8877748B2, “Heterocyclic fused anthraquinone derivatives, manufacturing method and pharmaceutical composition using thereof” (National Defense Medical Center, priority 2012, dated 2014).
# Where two headings read alike, the source gives them in different places.
# Experiments:
# [1] = tested on: human tumor cell lines; experiment: NCI one-dose screening, mean, delta and range of growth percent over all cell lines tested; assay type: cell-based; settings: for Growth Percent (10 μM), Delta: Delta over all cell lines tested; for Growth Percent (10 μM), Mean: Mean over all cell lines tested; for Growth Percent (10 μM), Range: Range over all cell lines tested
# [2] = tested on: MDA, -MB-435; experiment: NCI one-dose screening, breast cancer MDA, -MB-435; assay type: cell-based, human; settings: Melanoma, MDA-MB-435, 10 μM
# [3] = tested on: CAKI-1; experiment: NCI one-dose screening, renal cancer CAKI-1; assay type: cell-based, human; settings: CAKI-1, 10 μM
# [4] = tested on: BT-549; experiment: NCI one-dose screening, breast cancer BT-549; assay type: cell-based, human; settings: BT-549, 10 μM
# [5] = tested on: OVCAR-4; experiment: NCI one-dose screening, ovarian cancer OVCAR-4; assay type: cell-based, human; settings: OVCAR-4, 10 μM
# [6] = tested on: HCT-116; experiment: NCI one-dose screening, colon cancer HCT-116; assay type: cell-based, human; settings: HCT-116, 10 μM
# [7] = tested on: EKVX; experiment: NCI one-dose screening, non-small cell lung cancer EKVX; assay type: cell-based, human; settings: EKVX
# [8] = tested on: MALME-3M; experiment: NCI one-dose screening, melanoma MALME-3M; assay type: cell-based, human; settings: MALME-3M
# [9] = tested on: M14; experiment: NCI one-dose screening, melanoma M14; assay type: cell-based, human; settings: M14, 10 μM
# [10] = tested on: NCI-H226; experiment: NCI one-dose screening, non-small cell lung cancer NCI-H226; assay type: cell-based, human; settings: NCI-H226, 10 μM
# [11] = tested on: TK-10; experiment: NCI one-dose screening, renal cancer TK-10; assay type: cell-based, human; settings: TK-10, 10 μM
# [12] = tested on: IGROV1; experiment: NCI one-dose screening, ovarian cancer IGROV1; assay type: cell-based, human; settings: IGROV1, 10 μM
# [13] = tested on: PC-3; experiment: NCI one-dose screening, prostate cancer PC-3; assay type: cell-based, human; settings: PC-3, 10 μM
# [14] = tested on: SF-268; experiment: NCI one-dose screening, CNS cancer SF-268; assay type: cell-based, human; settings: SF-268, 10 μM
# [15] = tested on: PC-3 prostate cancer cell line; experiment: SRB assay cell viability, PC-3 prostate cancer cell line; assay type: cell-based, human; settings: PC-3 prostate cancer cell line, Table II prints no unit, μM printed, read-out: SRB assay: 50% inhibition of cancer cell proliferation of sample concentration (IC50) of PC-3 prostate cancer cell line
# [16] = tested on: NCI-H522; experiment: NCI one-dose screening, non-small cell lung cancer NCI-H522; assay type: cell-based, human; settings: NCI-H522, 10 μM
# [17] = tested on: SF-295; experiment: NCI one-dose screening, CNS cancer SF-295; assay type: cell-based, human; settings: SF-295, 10 μM
# [18] = tested on: HL-60, TB; experiment: NCI one-dose screening, leukemia HL-60, TB; assay type: cell-based, human; settings: HL-60(TB)
# [19] = tested on: T-47D; experiment: NCI one-dose screening, breast cancer T-47D; assay type: cell-based, human; settings: T-47D
# [20] = tested on: NCI-H460; experiment: NCI one-dose screening, non-small cell lung cancer NCI-H460; assay type: cell-based, human; settings: NCI-H460, 10 μM
# [21] = tested on: 786-O; experiment: NCI one-dose screening, renal cancer 786-O; assay type: cell-based, human; settings: 786-0, 10 μM
# [22] = tested on: HS 578-T; experiment: NCI one-dose screening, breast cancer HS 578-T; assay type: cell-based, human
# [23] = tested on: OVCAR-5; experiment: NCI one-dose screening, ovarian cancer OVCAR-5; assay type: cell-based, human; settings: OVCAR-5, 10 μM
# [24] = tested on: MDA-MB-231/ATCC; experiment: NCI one-dose screening, breast cancer MDA-MB-231/ATCC; assay type: cell-based, human; settings: MDA-MB-231/ATCC
# [25] = tested on: A549/ATCC; experiment: NCI one-dose screening, non-small cell lung cancer A549/ATCC; assay type: cell-based, human; settings: A549/ATCC
# [26] = tested on: HCC-2998; experiment: NCI one-dose screening, colon cancer HCC-2998; assay type: cell-based, human; settings: HCC-2998, 10 μM
# [27] = tested on: NCI-H322M; experiment: NCI one-dose screening, non-small cell lung cancer NCI-H322M; assay type: cell-based, human
# [28] = tested on: MDA-MB-468; experiment: NCI one-dose screening, breast cancer MDA-MB-468; assay type: cell-based, human; settings: MDA-MB-468, 10 μM
# [29] = tested on: SN12C; experiment: NCI one-dose screening, renal cancer SN12C; assay type: cell-based, human; settings: SN12C
# [30] = tested on: PRMI-8226 cell line; experiment: NCI one-dose screening, leukemia PRMI-8226; assay type: cell-based, human; settings: RPMI-8226, 10 μM
# [31] = tested on: SNB-75; experiment: NCI one-dose screening, CNS cancer SNB-75; assay type: cell-based, human; settings: SNB-75, 10 μM
# [32] = tested on: LOX IMVI; experiment: NCI one-dose screening, melanoma LOX IMVI; assay type: cell-based, human; settings: LOX IMVI
# [33] = tested on: K562cell line; experiment: NCI one-dose screening, leukemia K562; assay type: cell-based, human; settings: K562, 10 μM
# [34] = tested on: SNB-19; experiment: NCI one-dose screening, CNS cancer SNB-19; assay type: cell-based, human; settings: SNB-19, 10 μM
# [35] = tested on: UACC-257; experiment: NCI one-dose screening, melanoma UACC-257; assay type: cell-based, human; settings: UACC-257, 10 μM
# [36] = tested on: UACC-62; experiment: NCI one-dose screening, melanoma UACC-62; assay type: cell-based, human; settings: UACC-62, 10 μM
# [37] = tested on: COLO 205; experiment: NCI one-dose screening, colon cancer COLO 205; assay type: cell-based, human; settings: COLO 205, 10 μM
# [38] = tested on: CCRF-CEM; experiment: NCI screening platform one-dose single concentration screening, leukemia CCRF-CEM; assay type: cell-based, human; settings: CCRF-CEM
# [39] = tested on: HT29; experiment: NCI one-dose screening, colon cancer HT29; assay type: cell-based, human; settings: HT29, 10 μM
# [40] = tested on: MCF7; experiment: NCI one-dose screening, breast cancer MCF7; assay type: cell-based, human; settings: MCF7, 10 μM
# [41] = tested on: NCI-H23; experiment: NCI one-dose screening, non-small cell lung cancer NCI-H23; assay type: cell-based, human; settings: NCI-H23, 10 μM
# [42] = tested on: U251; experiment: NCI one-dose screening, CNS cancer U251; assay type: cell-based, human; settings: U251, 10 μM
# [43] = tested on: OVCAR-3; experiment: NCI one-dose screening, ovarian cancer OVCAR-3; assay type: cell-based, human; settings: OVCAR-3, 10 μM
structure (smiles),measurement,setting,value
CN(C)CCNc1cc2c(c3nsnc13)C(=O)c1ccccc1C2=O [C8],"Growth Percent (10 μM), Delta",[1],49.51%
same,"Growth Percent (10 μM), Mean",[1],−49.52%
same,"Growth Percent (10 μM), Range",[1],112.33%
same,Growth Percent (10 μM),[2],−58.82%
same,Growth Percent (10 μM),[3],6.88%
same,Growth Percent (10 μM),[4],−99.43%
same,Growth Percent (10 μM),[5],−71.27%
same,Growth Percent (10 μM),[6],−2.07%
same,Growth Percent (10 μM),[7],−25.35%
same,Growth Percent (10 μM),[8],−85.22%
same,Growth Percent (10 μM),[9],−96.08%
same,Growth Percent (10 μM),[10],69.78%
same,Growth Percent (10 μM),[11],−35.59%
same,Growth Percent (10 μM),[12],−28.40%
same,Growth Percent (10 μM),[13],−18.35%
same,Growth Percent (10 μM),[14],−14.54%
same,IC50,[15],0.4 µM
same,Growth Percent (10 μM),[16],−91.81%
same,Growth Percent (10 μM),[17],−55.73%
same,Growth Percent (10 μM),[18],−10.38%
same,Growth Percent (10 μM),[19],12.90%
same,Growth Percent (10 μM),[20],−38.31%
same,Growth Percent (10 μM),[21],−14.05%
same,Growth Percent (10 μM),[22],4.32%
same,Growth Percent (10 μM),[23],−76.97%
same,Growth Percent (10 μM),[24],−2.96%
same,Growth Percent (10 μM),[25],−60.09%
same,Growth Percent (10 μM),[26],−86.18%
same,Growth Percent (10 μM),[27],−56.32%
same,Growth Percent (10 μM),[28],−62.81%
same,Growth Percent (10 μM),[29],−95.78%
same,Growth Percent (10 μM),[30],−29.81%
same,Growth Percent (10 μM),[31],−73.34%
same,Growth Percent (10 μM),[32],−90.91%
same,Growth Percent (10 μM),[33],−24.44%
same,Growth Percent (10 μM),[34],−77.31%
same,Growth Percent (10 μM),[35],−88.80%
same,Growth Percent (10 μM),[36],−47.85%
same,Growth Percent (10 μM),[37],−99.38%
same,Growth Percent (10 μM),[38],−12.55%
same,Growth Percent (10 μM),[39],−45.50%
same,Growth Percent (10 μM),[40],−49.41%
same,Growth Percent (10 μM),[41],−43.43%
same,Growth Percent (10 μM),[42],−55.42%
same,Growth Percent (10 μM),[43],−38.62%
"CC(C)Sc1cc2c(c3nsnc13)C(=O)c1ccccc1C2=O [C18, 4-(isopropylthio)anthra[2,1-c][1,2,5] thiadiazol-6,11-dione]","Growth Percent (10 μM), Delta",[1],78.36%
same,"Growth Percent (10 μM), Mean",[1],−21.64%
same,"Growth Percent (10 μM), Range",[1],202.47%
same,Growth Percent (10 μM),[2],−79.28%
same,Growth Percent (10 μM),[3],−5.68%
same,Growth Percent (10 μM),[4],10.84%
same,Growth Percent (10 μM),[5],−100.00%
same,Growth Percent (10 μM),[6],−36.70%
same,Growth Percent (10 μM),[7],−6.58%
same,Growth Percent (10 μM),[8],−86.04%
same,Growth Percent (10 μM),[9],−31.54%
same,Growth Percent (10 μM),[10],10.21%
same,Growth Percent (10 μM),[11],30.33%
same,Growth Percent (10 μM),[12],−32.91%
same,Growth Percent (10 μM),[13],−13.43%
same,Growth Percent (10 μM),[14],7.06%
same,IC50,[15]; Homo sapiens,1.15 µM
same,Growth Percent (10 μM),[16],−59.54%
same,Growth Percent (10 μM),[17],−16.57%
same,Growth Percent (10 μM),[18],−41.24%
same,Growth Percent (10 μM),[19],−24.37%
same,Growth Percent (10 μM),[20],4.92%
same,Growth Percent (10 μM),[21],12.37%
same,Growth Percent (10 μM),"[22]; Breast cancer, HS 578T, 10 μM",−9.16%
same,Growth Percent (10 μM),[23],−27.85%
same,Growth Percent (10 μM),[24],−35.94%
same,Growth Percent (10 μM),[25],−8.14%
same,Growth Percent (10 μM),[26],21.00%
same,Growth Percent (10 μM),"[27]; Non-small cell lung cancer, NCI-H322M, 10 μM",−0.80%
same,Growth Percent (10 μM),[28],−78.76%
same,Growth Percent (10 μM),[29],−28.62%
same,Growth Percent (10 μM),[30],−38.03%
same,Growth Percent (10 μM),[31],9.12%
same,Growth Percent (10 μM),[32],−21.59%
same,Growth Percent (10 μM),[33],−26.17%
same,Growth Percent (10 μM),[34],21.85%
same,Growth Percent (10 μM),[35],−91.69%
same,Growth Percent (10 μM),[36],−57.09%
same,Growth Percent (10 μM),[37],102.47%
same,Growth Percent (10 μM),[38],−45.05%
same,Growth Percent (10 μM),[39],48.08%
same,Growth Percent (10 μM),[40],−68.82%
same,Growth Percent (10 μM),[41],−42.19%
same,Growth Percent (10 μM),[42],−23.10%
same,Growth Percent (10 μM),[43],−60.32%
